The experiment concerns CD2F1 mice, L1210 leukemia ip, survival T/C. In words: NCI In Vivo Anticancer Drug Screen. Data for tumor model L1210 Leukemia (intraperitoneal) in CD2F1 (CDF1) mice. To be noted: endpoint: mean survival time, higher = longer survival. Summed up:
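Compound-dosed mice with transplantable tumor versus matched vehicle controls; endpoint ratio T/C reported.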

Setting [1] is: dose: 100.0 mg/kg/injection, schedule: Q01DX009 (ip), vehicle: saline with Tween-80.
Where [2] appears, read: dose: 400.0 mg/kg/injection, schedule: Q01DX009 (ip), vehicle: saline with Tween-80.

Values joined by “and” are separate entries in the source; they are usually repeats but may differ in a detail not shown here. Equal values may be shown once. Inconclusive results and toxic doses are left out.

In the case of `C=CC(=O)N1CCN(C(=O)C=C)c2cc(C)c(C)cc21`, the T/C is 101 % of control (dose: 25.0 mg/kg/injection, schedule: Q01DX009 (ip), vehicle: saline); 101 % of control (dose: 50.0 mg/kg/injection, schedule: Q01DX009 (ip), vehicle: saline); 100 % of control (dose: 100.0 mg/kg/injection, schedule: Q01DX009 (ip), vehicle: saline).
For `C=CCNC(=O)NCC=C`, the T/C is, setting by setting: (dose: 3.13 mg/kg/injection, schedule: Q01DX009 (ip), vehicle: saline) 102 % of control and 110 % of control (2×); (dose: 12.5 mg/kg/injection, schedule: Q01DX005 (ip), vehicle: saline) 102 % of control; (dose: 12.5 mg/kg/injection, schedule: Q02DX005 (ip), vehicle: saline) 97 % of control; (dose: 12.5 mg/kg/injection, schedule: Q04DX003 (ip), vehicle: saline) 100 % of control; (dose: 25.0 mg/kg/injection, schedule: Q01DX005 (ip), vehicle: saline) 105 % of control; (dose: 25.0 mg/kg/injection, schedule: Q02DX005 (ip), vehicle: saline) 100 % of control. For the same compound, the T/C reads like this: (dose: 25.0 mg/kg/injection, schedule: Q04DX003 (ip), vehicle: saline) 102 % of control; (dose: 50.0 mg/kg/injection, schedule: Q01DX005 (ip), vehicle: saline) 103 % of control; (dose: 50.0 mg/kg/injection, schedule: Q02DX005 (ip), vehicle: saline) 103 % of control; (dose: 50.0 mg/kg/injection, schedule: Q04DX003 (ip), vehicle: saline) 103 % of control; (dose: 100.0 mg/kg/injection, schedule: Q01DX005 (ip), vehicle: saline) 109 % of control; (dose: 100.0 mg/kg/injection, schedule: Q01DX006 (ip), vehicle: saline) 154 % of control. Also, the T/C is 105 % of control (dose: 100.0 mg/kg/injection, schedule: Q02DX005 (ip), vehicle: saline); 120 % of control (dose: 100.0 mg/kg/injection, schedule: Q03DX003 (ip), vehicle: saline); 115 % of control and 109 % of control (dose: 100.0 mg/kg/injection, schedule: Q04DX003 (ip), vehicle: saline); 168 % of control (dose: 200.0 mg/kg/injection, schedule: Q01DX006 (ip), vehicle: saline); 109 % of control (dose: 200.0 mg/kg/injection, schedule: Q02DX005 (ip), vehicle: saline); 115 % of control and 120 % of control (dose: 200.0 mg/kg/injection, schedule: Q04DX003 (ip), vehicle: saline). The T/C is 115 % of control (dose: 400.0 mg/kg/injection, schedule: Q02DX005 (ip), vehicle: saline) and 97 % of control (dose: 400.0 mg/kg/injection, schedule: Q04DX003 (ip), vehicle: saline).
Regarding `NC1CCC(Br)C2CCCCC12` (stereo not given), the T/C runs as follows: (dose: 5.0 mg/kg/injection, schedule: Q01DX001 (ip), vehicle: saline with Tween-80) 103 % of control; (dose: 10.0 mg/kg/injection, schedule: Q01DX001 (ip), vehicle: saline with Tween-80) 103 % of control; (dose: 20.0 mg/kg/injection, schedule: Q01DX001 (ip), vehicle: saline with Tween-80) 104 % of control.
For `CCOC(=O)N1CCc2nc3cc(OC)ccc3cc21`, the T/C runs as follows: (dose: 100.0 mg/kg/injection, schedule: Q01DX001 (ip), vehicle: saline with Tween-80) 103 % of control; (dose: 200.0 mg/kg/injection, schedule: Q01DX001 (ip), vehicle: saline with Tween-80) 98 % of control; (dose: 400.0 mg/kg/injection, schedule: Q01DX001 (ip), vehicle: saline with Tween-80) 98 % of control.
For `C1CCC2C(C1)CC1CCCCC1C2C1C2CCCCC2CC2CCCCC21` (stereo not given), the T/C is, setting by setting: (dose: 100.0 mg/kg/injection, schedule: Q04DX003 (ip), vehicle: saline with Tween-80) 97 % of control; (dose: 200.0 mg/kg/injection, schedule: Q04DX003 (ip), vehicle: saline with Tween-80) 100 % of control; (dose: 400.0 mg/kg/injection, schedule: Q04DX003 (ip), vehicle: saline with Tween-80) 96 % of control.
For the compound `O=C1NC(=O)c2cc(C(F)(F)F)ccc21`, the T/C runs as follows: (dose: 6.25 mg/kg/injection, schedule: Q01DX009 (ip), vehicle: saline with Tween-80) 95 % of control; (dose: 12.5 mg/kg/injection, schedule: Q01DX009 (ip), vehicle: saline with Tween-80) 89 % of control; (dose: 12.5 mg/kg/injection, schedule: Q04DX003 (ip), vehicle: saline with Tween-80) 101 % of control; (dose: 25.0 mg/kg/injection, schedule: Q04DX003 (ip), vehicle: saline with Tween-80) 100 % of control.
`C[n+]1ccc2c(Br)cccc2c1`: the T/C (dose: 75.0 mg/kg/injection, schedule: Q01DX001 (ip), vehicle: saline) is 101 % of control.
Take `CC#CC(=O)OC`: the T/C by setting is: (dose: 50.0 mg/kg/injection, schedule: Q01DX009 (ip), vehicle: saline with Tween-80) 104 % of control; under setting [1], 104 % of control; (dose: 200.0 mg/kg/injection, schedule: Q01DX009 (ip), vehicle: saline with Tween-80) 96 % of control.
On to `O=C(CCCCl)Nc1cc([N+](=O)[O-])ccc1OCc1ccccc1`, for which the T/C is, setting by setting: (dose: 100.0 mg/kg/injection, schedule: Q01DX001 (ip), vehicle: saline) 94 % of control; (dose: 200.0 mg/kg/injection, schedule: Q01DX001 (ip), vehicle: saline) 94 % of control; (dose: 400.0 mg/kg/injection, schedule: Q01DX001 (ip), vehicle: saline) 94 % of control.
On to `CNCCNc1ccc(NCCNC)c2c1C(=O)c1ccccc1C2=O`, for which the T/C runs as follows: (dose: 4.0 mg/kg/injection, schedule: Q01DX009 (ip), vehicle: acid diluted with saline) 150 % of control and 157 % of control; (dose: 8.0 mg/kg/injection, schedule: Q01DX009 (ip), vehicle: acid diluted with saline) 187 % of control and 195 % of control; (dose: 16.0 mg/kg/injection, schedule: Q01DX009 (ip), vehicle: acid diluted with saline) 177 % of control.
`C(=Nc1ccc(-c2ccccc2)cc1)c1ccccc1`: the T/C is, setting by setting: under setting [1], 87 % of control; under setting [2], 91 % of control.
As to `O=C1CN=C(c2ccccn2)c2cc(Cl)ccc2N1`, the T/C by setting is: (dose: 267.0 mg/kg/injection, schedule: Q01DX009 (ip), vehicle: saline with Tween-80) 92 % of control; under setting [2], 92 % of control.

The record behind these values is PubChem BioAssay AID256 (DTP/NCI, 2004).
